# System: pilocarpine induced status epilepticus (SE)
# Experiment: Pilocarpine-induced status epilepticus in rats, cortical EEG power
# Type: in vivo, Male Sprague-Dawley rats
# Set-up: key to Treatment effect on EEG power vs vehicle, significance: * P < 0.05; ** P < 0.01; *** P < 0.001; **** P < 0.0001; ns = not significant
# Details: 15 mg/kg IV
# Experimental: This study was designed to determine the ability of a CAPTISOL-ganaxolone (GNX) formulation administered intravenously (IV) at 12 and 15 mg/kg to inhibit pilocarpine induced status epilepticus (SE). Allopregnanolone (Allo) (15 mg/kg; IV) was also evaluated for comparison. In this study, test drugs were administered either 15 or 60 minutes after onset of SE and compared to vehicle (30% Captisol).
# Cortical EEG activity was recorded in rats before and after administration of pilocarpine to induce SE. Animals were pre-treated with LiCl to enhance and improve reliability of seizure induction and scopolamine to reduce peripheral cholinergic side effects of pilocarpine. EEG activity was recorded for 5 h after SE onset, and anticonvulsant activity was assessed by determining changes in EEG power over frequency ranges from 0.3 to 96 Hz.
# Male Sprague-Dawley rats were used for the studies. Rats were surgically implanted with EEG electrodes and jugular vein catheters. The mean weight at the time of recording was 321+3 g (269-351 g).
# EEG electrodes were surgically implanted in anesthetized rats. Animals were also treated with an anti-inflammatory anaelgesic (RIMADYL, (carprofen)) prior to surgery and a subcutaneous local anesthetic. Stainless steel screw electrodes chronically were implanted in the skull (0-80×¼″, Plastics-One, Roanoke, VA) such that the ends of the screws were flush with the inner skull surface. One electrode was located 3.0 mm anterior to bregma and 2 mm to the left of midline, and the second 4.0 mm posterior to bregma and 2.5 mm to the right of midline. The skull surface around the electrodes was sealed with super glue and dental acrylic, and the EEG electrode lead wires were inserted into a plastic pedestal mounted on the skull using dental acrylic. Wound edges were treated with triple antibiotic cream (bacitracin zinc, neomycin sulfate, polymyxin B sulfate; Walgreens). Following surgery, animals were administered antibiotic (ampicillin, 50 mg/kg IP at 0.4 mL/kg) and also received a chewable dose (˜10 mg) of Rimadyl following surgery. The animals were allowed to recover from EEG surgery for 1 week.
# Rats were implanted with jugular-vein catheters (JVC) one week following EEG surgery. Rats were administered an anti-inflammatory/analgesic and then anesthetized and placed in a supine position. An incision was made in the skin on the right ventrolateral aspect of the neck to expose the external jugular vein which was then dissected free of surrounding fascia. A ligature was tied around the vein anteriorly to occlude blood flow returning to the heart. A second ligature was loosely tied around the vein posteriorly to create tension on the vessel during venotomy and catheter insertion. After incising the vein, a PE catheter (3Fr) was inserted into the vein and advanced approximately 30 mm towards the heart, positioning the tip at the junction of the precava and right atrium. After confirming patency of the catheter by blood withdrawal, the posterior ligature was tied off, and the catheter flushed with a “heparin-lock” solution (5 units heparin/ml saline) and plugged with a sterilized stainless steel pin. The catheter was then exteriorized by tunneling through the subcutaneous tissue to exit posterior to the head between the shoulder blades. Lastly, after suturing the catheter to the skin, all wounds were closed using sutures or wound clips. Immediately following surgery, the animals were awakened to assess catheter patency. Animals also received a chewable dose (˜10 mg) of Rimadyl following surgery to minimize pain and inflammation.
# Animals were allowed a 1-week recovery time following JVC surgery. Jugular vein catheters were flushed daily with a 0.1 mL of heparin solution (5 units/mL) to maintain patency. On the day of surgery, the flushing solution contained ampicillin sulbactam (50 mg/kg). […]
compound,measurement,setting,value
CC(=O)[C@H]1CC[C@H]2[C@@H]3CC[C@H]4C[C@H](O)CC[C@]4(C)[C@H]3CC[C@]12C [Allopregnanolone],reduction in SE,"60′ dosing delay, 0-5 and 5-10 Hz",strong reduction in SE in the first 15′ after dosing
same,"Treatment effect on EEG power vs vehicle, significance","15 min post SE onset, 0-5 Hz, 0-15 min. post drug",**** (**** P < 0.0001)
same,"Treatment effect on EEG power vs vehicle, significance","15 min post SE onset, 0-5 Hz, 1-2 hrs post drug",*** (*** P < 0.001)
same,"Treatment effect on EEG power vs vehicle, significance","15 min post SE onset, 0-5 Hz, 2-3 hrs post drug",* (* P < 0.05)
same,"Treatment effect on EEG power vs vehicle, significance","15 min post SE onset, 0-5 Hz, 3-5 hrs post drug",ns
same,"Treatment effect on EEG power vs vehicle, significance","15 min post SE onset, 0-5 Hz, 15-30 min post drug",**** (**** P < 0.0001)
same,"Treatment effect on EEG power vs vehicle, significance","15 min post SE onset, 0-5 Hz, 30-60 min post drug",**** (**** P < 0.0001)
same,"Treatment effect on EEG power vs vehicle, significance","15 min post SE onset, 5-10 Hz, 0-15 min. post drug",**** (**** P < 0.0001)
same,"Treatment effect on EEG power vs vehicle, significance","15 min post SE onset, 5-10 Hz, 1-2 hrs post drug",*** (*** P < 0.001)
same,"Treatment effect on EEG power vs vehicle, significance","15 min post SE onset, 5-10 Hz, 2-3 hrs post drug",ns
same,"Treatment effect on EEG power vs vehicle, significance","15 min post SE onset, 5-10 Hz, 3-5 hrs post drug",ns
same,"Treatment effect on EEG power vs vehicle, significance","15 min post SE onset, 5-10 Hz, 15-30 min post drug",**** (**** P < 0.0001)
same,"Treatment effect on EEG power vs vehicle, significance","15 min post SE onset, 5-10 Hz, 30-60 min post drug",**** (**** P < 0.0001)
same,"Treatment effect on EEG power vs vehicle, significance","15 min post SE onset, 10-30 Hz, 0-15 min. post drug",**** (**** P < 0.0001)
same,"Treatment effect on EEG power vs vehicle, significance","15 min post SE onset, 10-30 Hz, 1-2 hrs post drug",** (** P < 0.01)
same,"Treatment effect on EEG power vs vehicle, significance","15 min post SE onset, 10-30 Hz, 2-3 hrs post drug",ns
same,"Treatment effect on EEG power vs vehicle, significance","15 min post SE onset, 10-30 Hz, 3-5 hrs post drug",ns
same,"Treatment effect on EEG power vs vehicle, significance","15 min post SE onset, 10-30 Hz, 15-30 min post drug",**** (**** P < 0.0001)
same,"Treatment effect on EEG power vs vehicle, significance","15 min post SE onset, 10-30 Hz, 30-60 min post drug",*** (*** P < 0.001)
same,"Treatment effect on EEG power vs vehicle, significance","15 min post SE onset, 30-50 Hz, 0-15 min. post drug",**** (**** P < 0.0001)
same,"Treatment effect on EEG power vs vehicle, significance","15 min post SE onset, 30-50 Hz, 1-2 hrs post drug",ns
same,"Treatment effect on EEG power vs vehicle, significance","15 min post SE onset, 30-50 Hz, 2-3 hrs post drug",ns
same,"Treatment effect on EEG power vs vehicle, significance","15 min post SE onset, 30-50 Hz, 3-5 hrs post drug",ns
same,"Treatment effect on EEG power vs vehicle, significance","15 min post SE onset, 30-50 Hz, 15-30 min post drug",**** (**** P < 0.0001)
same,"Treatment effect on EEG power vs vehicle, significance","15 min post SE onset, 30-50 Hz, 30-60 min post drug",*** (*** P < 0.001)
same,"Treatment effect on EEG power vs vehicle, significance","15 min post SE onset, 50-70 Hz, 0-15 min. post drug",*** (*** P < 0.001)
same,"Treatment effect on EEG power vs vehicle, significance","15 min post SE onset, 50-70 Hz, 1-2 hrs post drug",ns
same,"Treatment effect on EEG power vs vehicle, significance","15 min post SE onset, 50-70 Hz, 2-3 hrs post drug",ns
same,"Treatment effect on EEG power vs vehicle, significance","15 min post SE onset, 50-70 Hz, 3-5 hrs post drug",ns
same,"Treatment effect on EEG power vs vehicle, significance","15 min post SE onset, 50-70 Hz, 15-30 min post drug",*** (*** P < 0.001)
same,"Treatment effect on EEG power vs vehicle, significance","15 min post SE onset, 50-70 Hz, 30-60 min post drug",** (** P < 0.01)
same,"Treatment effect on EEG power vs vehicle, significance","15 min post SE onset, 70-96 Hz, 0-15 min. post drug",*** (*** P < 0.001)
same,"Treatment effect on EEG power vs vehicle, significance","15 min post SE onset, 70-96 Hz, 1-2 hrs post drug",ns
same,"Treatment effect on EEG power vs vehicle, significance","15 min post SE onset, 70-96 Hz, 2-3 hrs post drug",ns
same,"Treatment effect on EEG power vs vehicle, significance","15 min post SE onset, 70-96 Hz, 3-5 hrs post drug",ns
same,"Treatment effect on EEG power vs vehicle, significance","15 min post SE onset, 70-96 Hz, 15-30 min post drug",*** (*** P < 0.001)
same,"Treatment effect on EEG power vs vehicle, significance","15 min post SE onset, 70-96 Hz, 30-60 min post drug",** (** P < 0.01)
same,reduction in SE,15 minutes post-seizure onset,strong reduction in SE up to 1 h post dosing
same,"Treatment effect on EEG power vs vehicle, significance","60 min post SE onset, 0-5 Hz, 0-15 min. post drug",** (** P < 0.01)
same,"Treatment effect on EEG power vs vehicle, significance","60 min post SE onset, 0-5 Hz, 1-2 hrs post drug",ns
same,"Treatment effect on EEG power vs vehicle, significance","60 min post SE onset, 0-5 Hz, 2-3 hrs post drug",ns
same,"Treatment effect on EEG power vs vehicle, significance","60 min post SE onset, 0-5 Hz, 3-5 hrs post drug",ns
same,"Treatment effect on EEG power vs vehicle, significance","60 min post SE onset, 0-5 Hz, 15-30 min post drug",ns
same,"Treatment effect on EEG power vs vehicle, significance","60 min post SE onset, 0-5 Hz, 30-60 min post drug",Ns
same,"Treatment effect on EEG power vs vehicle, significance","60 min post SE onset, 5-10 Hz, 0-15 min. post drug",** (** P < 0.01)
same,"Treatment effect on EEG power vs vehicle, significance","60 min post SE onset, 5-10 Hz, 1-2 hrs post drug",ns
same,"Treatment effect on EEG power vs vehicle, significance","60 min post SE onset, 5-10 Hz, 2-3 hrs post drug",ns
same,"Treatment effect on EEG power vs vehicle, significance","60 min post SE onset, 5-10 Hz, 3-5 hrs post drug",ns
same,"Treatment effect on EEG power vs vehicle, significance","60 min post SE onset, 5-10 Hz, 15-30 min post drug",ns
same,"Treatment effect on EEG power vs vehicle, significance","60 min post SE onset, 5-10 Hz, 30-60 min post drug",Ns
same,"Treatment effect on EEG power vs vehicle, significance","60 min post SE onset, 10-30 Hz, 0-15 min. post drug",ns
same,"Treatment effect on EEG power vs vehicle, significance","60 min post SE onset, 10-30 Hz, 1-2 hrs post drug",ns
same,"Treatment effect on EEG power vs vehicle, significance","60 min post SE onset, 10-30 Hz, 2-3 hrs post drug",ns
same,"Treatment effect on EEG power vs vehicle, significance","60 min post SE onset, 10-30 Hz, 3-5 hrs post drug",ns
same,"Treatment effect on EEG power vs vehicle, significance","60 min post SE onset, 10-30 Hz, 15-30 min post drug",ns
same,"Treatment effect on EEG power vs vehicle, significance","60 min post SE onset, 10-30 Hz, 30-60 min post drug",Ns
same,"Treatment effect on EEG power vs vehicle, significance","60 min post SE onset, 30-50 Hz, 0-15 min. post drug",ns
same,"Treatment effect on EEG power vs vehicle, significance","60 min post SE onset, 30-50 Hz, 1-2 hrs post drug",ns
same,"Treatment effect on EEG power vs vehicle, significance","60 min post SE onset, 30-50 Hz, 2-3 hrs post drug",ns
same,"Treatment effect on EEG power vs vehicle, significance","60 min post SE onset, 30-50 Hz, 3-5 hrs post drug",ns
same,"Treatment effect on EEG power vs vehicle, significance","60 min post SE onset, 30-50 Hz, 15-30 min post drug",ns
same,"Treatment effect on EEG power vs vehicle, significance","60 min post SE onset, 30-50 Hz, 30-60 min post drug",Ns
same,"Treatment effect on EEG power vs vehicle, significance","60 min post SE onset, 50-70 Hz, 0-15 min. post drug",ns
same,"Treatment effect on EEG power vs vehicle, significance","60 min post SE onset, 50-70 Hz, 1-2 hrs post drug",ns
same,"Treatment effect on EEG power vs vehicle, significance","60 min post SE onset, 50-70 Hz, 2-3 hrs post drug",ns
same,"Treatment effect on EEG power vs vehicle, significance","60 min post SE onset, 50-70 Hz, 3-5 hrs post drug",ns
same,"Treatment effect on EEG power vs vehicle, significance","60 min post SE onset, 50-70 Hz, 15-30 min post drug",ns
same,"Treatment effect on EEG power vs vehicle, significance","60 min post SE onset, 50-70 Hz, 30-60 min post drug",Ns
same,"Treatment effect on EEG power vs vehicle, significance","60 min post SE onset, 70-96 Hz, 0-15 min. post drug",ns
same,"Treatment effect on EEG power vs vehicle, significance","60 min post SE onset, 70-96 Hz, 1-2 hrs post drug",ns
same,"Treatment effect on EEG power vs vehicle, significance","60 min post SE onset, 70-96 Hz, 2-3 hrs post drug",ns
same,"Treatment effect on EEG power vs vehicle, significance","60 min post SE onset, 70-96 Hz, 3-5 hrs post drug",ns
same,"Treatment effect on EEG power vs vehicle, significance","60 min post SE onset, 70-96 Hz, 15-30 min post drug",ns
same,"Treatment effect on EEG power vs vehicle, significance","60 min post SE onset, 70-96 Hz, 30-60 min post drug",Ns
